In ChEMBL document CHEMBL1201862, “PubChem BioAssay data set” (2004):
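A five-concentration, 48-hour dose response in 96-well plates underlies each endpoint, interpolated linearly between surrounding concentrations. Abbreviation: GI50, concentration required for 50% inhibition of growth.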 The source made the active and inactive calls. Rule as the data show it: active = GI50 up to about 1.1 µM and inactive = higher.

Legend:
Experiment in all cases: NCI anticancer screen, dose series, 48 h
A498 = test system: A498
ACHN = test system: ACHN
SK-OV-3 = test system: SK-OV-3
NCI-H23 = test system: NCI-H23
SK-MEL-28 = test system: SK-MEL-28
RXF 631 = test system: RXF 631
Malme-3M = test system: Malme-3M
K562 = test system: K562
CAKI-1 = test system: CAKI-1
OVCAR-5 = test system: OVCAR-5
KM12 = test system: KM12
SNB-75 = test system: SNB-75
LOX IMVI = test system: LOX IMVI
SR = test system: SR

Measured: GI50

CC(C)N(C(=O)C1(C)CC1)C(C)C
inactive: A498 > 100 µM | ACHN > 100 µM | SK-OV-3 > 100 µM | NCI-H23 > 100 µM | SK-MEL-28 > 100 µM | RXF 631 > 100 µM | Malme-3M > 100 µM | K562 > 100 µM | CAKI-1 > 100 µM | OVCAR-5 > 100 µM | KM12 > 100 µM | SNB-75 > 100 µM

Nc1nc(-c2ccccc2)cc(-c2cc(Cl)ccc2O)n1
inactive: A498 > 100 µM | ACHN 25.6 µM | SK-OV-3 34.2 µM | NCI-H23 45.7 µM | SK-MEL-28 > 100 µM | RXF 631 > 100 µM | Malme-3M > 100 µM | LOX IMVI 54 µM | K562 > 100 µM | SR > 100 µM | CAKI-1 74.5 µM | OVCAR-5 > 100 µM | KM12 50.9 µM | SNB-75 28.7 µM

CCOc1ccc(/N=N/c2c(-c3ccccc3)nn(C(=O)CC(=O)Nc3cccc(C)c3)c2-c2ccccc2)cc1
inactive: ACHN 38.5 µM | SK-OV-3 > 100 µM | NCI-H23 > 100 µM | SK-MEL-28 > 100 µM | RXF 631 27.5 µM | Malme-3M > 100 µM | LOX IMVI > 100 µM | K562 38.8 µM | SR > 100 µM | CAKI-1 > 100 µM | OVCAR-5 74.1 µM | KM12 41.5 µM | SNB-75 27.9 µM

Clc1ccc2c(c1)[nH]c1c2nc2sccn21
inactive: A498 > 100 µM | ACHN > 100 µM | SK-OV-3 > 100 µM | NCI-H23 > 100 µM | SK-MEL-28 > 100 µM | RXF 631 > 100 µM | Malme-3M > 100 µM | LOX IMVI > 100 µM | K562 > 100 µM | SR > 100 µM | CAKI-1 > 100 µM | OVCAR-5 > 100 µM | KM12 > 100 µM | SNB-75 28.6 µM

N#Cc1ccc(C2OCC3CC=CCC3CO2)cc1 (stereo unspecified)
inactive: ACHN 93.5 µM | SK-OV-3 > 100 µM | NCI-H23 36.3 µM | SK-MEL-28 78.5 µM | RXF 631 41.7 µM | Malme-3M > 100 µM | LOX IMVI 94.6 µM | K562 30.9 µM | SR 36.1 µM | CAKI-1 > 100 µM | OVCAR-5 71.9 µM | KM12 61.4 µM | SNB-75 64.9 µM

C[P+](C)(C)C
inactive: ACHN > 100 µM | SK-OV-3 > 100 µM | NCI-H23 > 100 µM | SK-MEL-28 > 100 µM | RXF 631 > 100 µM | Malme-3M > 100 µM | LOX IMVI > 100 µM | K562 > 100 µM | SR > 100 µM | CAKI-1 > 100 µM | OVCAR-5 > 100 µM | KM12 > 100 µM | SNB-75 > 100 µM

C[N+]1=c2c3cccc4cccc(c(=O)n2CC1)c43
inactive: A498 15.1 µM | ACHN 12.5 µM | SK-OV-3 20.6 µM | NCI-H23 17.6 µM | SK-MEL-28 15.8 µM | RXF 631 24.2 µM | Malme-3M 10.5 µM | LOX IMVI 5.81 µM | K562 19 µM | SR 2.77 µM | CAKI-1 23.1 µM | OVCAR-5 15.5 µM | KM12 18.3 µM | SNB-75 21.8 µM

CC(C(=O)c1ccc(Cl)cc1)/C(=N/NC(=O)NN)C(=O)Nc1cccc(C(F)(F)F)c1 (stereo unspecified)
inactive: A498 > 100 µM | ACHN > 100 µM | SK-OV-3 > 100 µM | NCI-H23 > 100 µM | SK-MEL-28 > 100 µM | RXF 631 > 100 µM | Malme-3M > 100 µM | LOX IMVI > 100 µM | K562 > 100 µM | CAKI-1 > 100 µM | OVCAR-5 > 100 µM | SNB-75 > 100 µM

Cn1c2c(c3ccccc31)C1C(=O)N(c3ccccc3)C(=O)C1CC2 (stereo unspecified)
inactive: ACHN > 303 µM | SK-OV-3 > 303 µM | NCI-H23 > 303 µM | SK-MEL-28 > 303 µM | RXF 631 > 303 µM | Malme-3M > 303 µM | LOX IMVI > 303 µM | K562 > 303 µM | SR > 303 µM | CAKI-1 > 303 µM | KM12 > 303 µM

O=C(O)c1cc(=O)c2c([nH]c3ccccc32)s1
inactive: ACHN > 100 µM | SK-OV-3 > 100 µM | NCI-H23 > 100 µM | SK-MEL-28 > 100 µM | RXF 631 > 100 µM | Malme-3M > 100 µM | K562 > 100 µM | CAKI-1 > 100 µM | OVCAR-5 > 100 µM | KM12 > 100 µM | SNB-75 56.8 µM

CC(C)CN(CC(C)C)C(=O)C1CCCC[C@@H]1C(=O)O (stereo partly specified)
inactive: A498 > 100 µM | ACHN > 100 µM | SK-OV-3 > 100 µM | NCI-H23 > 100 µM | SK-MEL-28 > 100 µM | RXF 631 > 100 µM | Malme-3M > 100 µM | LOX IMVI > 100 µM | K562 > 100 µM | SR > 100 µM | CAKI-1 > 100 µM | OVCAR-5 > 10 µM | KM12 > 100 µM | SNB-75 > 100 µM
